Reference: US20180022780A1, “STABILIZATION ADRENOMEDULLIN DERIVATIVES AND USE THEREOF” (priority 2014, published 2018)
Bridge positions count the residues as written; N and C are the ends. Peptide text beside a SMILES is read from it. * marks the point of attachment. Palmitoyl = CCCCCCCCCCCCCCCC(=O)*

Legend:
[1] = biological target: T1, human adrenomedullin-receptor (Homo sapiens, UniProt O60895+Q16602); assay: Tests on a recombinant adrenomedullin-receptor reporter cell (CHO, aequorin luminescence); format: cell-based; conditions: Table 1, CHO cell line carrying the human adrenomedullin-receptor
T1 construct: expressed in transfected cells; host or cells: CHO (Chinese hamster ovary) recombinant reporter cell line with aequorin
Method: Activation of the receptor by ligands was measured by aequorin luminescence. Construction of the cell line and measurement procedure has been described in detail [Wunder F., Rebmann A., Geerts A, and Kalthof B., Mol Pharmacol, 73, 1235-1243 (2008)]. In brief: Cells were seeded on opaque 384-well microtiter plates at a density of 4000 cells/well and were grown for 24 h. After removal of culture medium, cells were loaded for 3 h with 0.6 μg/ml coelenterazine in Ca^2+-free Tyrode solution (130 mM sodium chloride, 5 mM potassium chloride, 20 mM HEPES (4-(2-hydroxyethyl)-1-piperazineethanesulfonic acid), 1 mM magnesium chloride, and 4.8 mM sodium hydrogen carbonate, pH 7.4) supplemented with 0.2 mM 3-Isobutyl-1-methylxanthine (IBMX) in a cell culture incubator. Examples were added for 6 min in calcium^2+-free Tyrode solution containing 0.1% bovine serum albumin. Immediately before adding calcium^2+ to a final concentration of 3 mM measurement of the aequorin luminescence was started by use of a suitable luminometer. Luminescence was measured for 60 s. In a typical experiment compounds were tested in a concentration range of 1×10^−13 to 3×10^−6 M.

[2] = biological target: T2, CLR fused to EYFP and RAMP2 fused to ECFP (Homo sapiens, UniProt O60895+Q16602); assay: cAMP assay (CRE luciferase reporter, HEK-293 cells transiently co-transfected with CLR and RAMP2); format: cell-based; conditions: Table 2, cAMP assay; HEK-293, CLR/RAMP2, CRE luciferase, 3 h stimulation, normalized to [G^14]ADM(14-52)
T2 construct: EYFP; ECFP; expressed in transfected cells; host or cells: HEK-293 cells, transient co-transfection
How it was run: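 HEK-293 cells transiently co-transfected with CLR-EYFP, RAMP2-ECFP and a CRE-luc2P luciferase reporter were stimulated with ligands (eight concentrations, triplicate) for 3 h at 37 °C. Luminescence was corrected to 5 µM forskolin, normalized to [G^14]ADM(14-52) standard, and fitted by non-linear regression to dose-response curves.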

T2 sequence (Q16602 23-461): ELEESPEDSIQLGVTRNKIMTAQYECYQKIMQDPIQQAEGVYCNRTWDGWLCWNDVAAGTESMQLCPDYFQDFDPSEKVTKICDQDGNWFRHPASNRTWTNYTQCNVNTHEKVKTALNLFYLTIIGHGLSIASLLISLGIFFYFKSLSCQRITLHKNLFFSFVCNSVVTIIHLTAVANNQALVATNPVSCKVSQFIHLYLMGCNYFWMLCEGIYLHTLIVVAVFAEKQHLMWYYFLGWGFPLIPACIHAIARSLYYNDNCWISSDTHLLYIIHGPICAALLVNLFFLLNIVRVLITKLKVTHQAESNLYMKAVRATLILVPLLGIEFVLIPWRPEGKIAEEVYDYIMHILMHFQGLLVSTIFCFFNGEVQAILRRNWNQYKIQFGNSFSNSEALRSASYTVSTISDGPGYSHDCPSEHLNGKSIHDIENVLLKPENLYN
T2 sequence (O60895 43-175): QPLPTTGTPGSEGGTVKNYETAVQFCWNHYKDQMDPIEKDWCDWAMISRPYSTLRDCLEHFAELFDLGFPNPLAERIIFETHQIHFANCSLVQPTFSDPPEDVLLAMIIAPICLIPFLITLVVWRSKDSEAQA
T1 sequence (Q16602 23-461): as the sequence (Q16602 23-461) above
T1 sequence (O60895 43-175): as the sequence (O60895 43-175) above

| EC50 [1] | EC50 [2] | Structure (SMILES) |
| --- | --- | --- |
| > 1000 nM | > 1000 nM | CC[C@H](C)[C@H](NC(=O)[C@H](CCC(N)=O)NC(=O)[C@H](Cc1c[nH]cn1)NC(=O)[C@H](C)NC(=O)[C@H](CC(C)C)NC(=O)[C@H](CCCCN)NC(=O)[C@H](CCC(N)=O)NC(=O)[C@@H](NC(=O)[C@@H](NC(=O)[C@@H]1CC(=O)NCCCC[C@H](NC(=O)CNC(=O)CN)C(=O)N[C@@H](CCCNC(=N)N)C(=O)N[C@@H](Cc2ccccc2)C(=O)NCC(=O)N[C@@H]([C@@H](C)O)C(=O)N1)[C@@H](C)O)C(C)C)C(=O)N[C@@H](Cc1ccc(O)cc1)C(=O)N[C@@H](CCC(N)=O)C(=O)N[C@@H](Cc1ccccc1)C(=O)N[C@H](C(=O)N[C@@H](CC(=O)O)C(=O)N[C@@H](CCCCN)C(=O)N[C@@H](CC(=O)O)C(=O)N[C@@H](CCCCN)C(=O)N[C@@H](CC(=O)O)C(=O)N[C@@H](CC(N)=O)C(=O)N[C@H](C(=O)N[C@@H](C)C(=O)N1CCC[C@H]1C(=O)N[C@@H](CCCNC(=N)N)C(=O)N[C@@H](CO)C(=O)N[C@@H](CCCCN)C(=O)N[C@H](C(=O)N[C@@H](CO)C(=O)N1CCC[C@H]1C(=O)N[C@@H](CCC(N)=O)C(=O)NCC(=O)N[C@@H](Cc1ccc(O)cc1)C(N)=O)[C@@H](C)CC)C(C)C)[C@@H](C)O [Example 21, ((2S,5S,11S,14S,22S)-22-(2-(2-aminoacetamido)acetamido)-5-benzyl-2-(3-guanidinopropyl)-11-((R)-1-hydroxyethyl)-3,6,9,12,16,23-hexaoxo-1,4,7,10,13,17-hexaazacyclotricosane-14-carbonyl)-L-threonyl-ADM(22-52)] (H-GGKRFGTDTVQKLAHQIYQFTDKDKDNVAPRSKISPQGY-NH2; lactam 3-8) |
| > 1000 nM | > 1000 nM | CC[C@H](C)[C@H](NC(=O)[C@H](CCC(N)=O)NC(=O)[C@H](Cc1c[nH]cn1)NC(=O)[C@H](C)NC(=O)[C@H](CC(C)C)NC(=O)[C@H](CCCCN)NC(=O)[C@H](CCC(N)=O)NC(=O)[C@@H](NC(=O)[C@@H](NC(=O)[C@@H]1CCC(=O)NCCCC[C@H](NC(=O)CNC(=O)CN)C(=O)N[C@@H](CCCNC(=N)N)C(=O)N[C@@H](Cc2ccccc2)C(=O)NCC(=O)N[C@@H]([C@@H](C)O)C(=O)N1)[C@@H](C)O)C(C)C)C(=O)N[C@@H](Cc1ccc(O)cc1)C(=O)N[C@@H](CCC(N)=O)C(=O)N[C@@H](Cc1ccccc1)C(=O)N[C@H](C(=O)N[C@@H](CC(=O)O)C(=O)N[C@@H](CCCCN)C(=O)N[C@@H](CC(=O)O)C(=O)N[C@@H](CCCCN)C(=O)N[C@@H](CC(=O)O)C(=O)N[C@@H](CC(N)=O)C(=O)N[C@H](C(=O)N[C@@H](C)C(=O)N1CCC[C@H]1C(=O)N[C@@H](CCCNC(=N)N)C(=O)N[C@@H](CO)C(=O)N[C@@H](CCCCN)C(=O)N[C@H](C(=O)N[C@@H](CO)C(=O)N1CCC[C@H]1C(=O)N[C@@H](CCC(N)=O)C(=O)NCC(=O)N[C@@H](Cc1ccc(O)cc1)C(N)=O)[C@@H](C)CC)C(C)C)[C@@H](C)O [Example 2, ((2S,5S,11S,14S,23S)-23-(2-(2-aminoacetamido)acetamido)-5-benzyl-2-(3-guanidinopropyl)-11-((R)-1-hydroxyethyl)-3,6,9,12,17,24-hexaoxo-1,4,7,10,13,18-hexaazacyclotetracosane-14-carbonyl)-L-threonyl-ADM(22-52)] (H-GGKRFGTETVQKLAHQIYQFTDKDKDNVAPRSKISPQGY-NH2; lactam 3-8) |
| > 1000 nM | > 1000 nM | CC[C@H](C)[C@H](NC(=O)[C@H](CCC(N)=O)NC(=O)[C@H](Cc1c[nH]cn1)NC(=O)[C@H](C)NC(=O)[C@H](CC(C)C)NC(=O)[C@H](CCCCN)NC(=O)[C@H](CCC(N)=O)NC(=O)[C@@H](NC(=O)[C@@H](NC(=O)[C@@H]1CCCC[C@H](NC(=O)CNC(=O)CN)C(=O)N[C@@H](CCCNC(=N)N)C(=O)N[C@@H](Cc2ccccc2)C(=O)NCC(=O)N[C@@H]([C@@H](C)O)C(=O)N1)[C@@H](C)O)C(C)C)C(=O)N[C@@H](Cc1ccc(O)cc1)C(=O)N[C@@H](CCC(N)=O)C(=O)N[C@@H](Cc1ccccc1)C(=O)N[C@H](C(=O)N[C@@H](CC(=O)O)C(=O)N[C@@H](CCCCN)C(=O)N[C@@H](CC(=O)O)C(=O)N[C@@H](CCCCN)C(=O)N[C@@H](CC(=O)O)C(=O)N[C@@H](CC(N)=O)C(=O)N[C@H](C(=O)N[C@@H](C)C(=O)N1CCC[C@H]1C(=O)N[C@@H](CCCNC(=N)N)C(=O)N[C@@H](CO)C(=O)N[C@@H](CCCCN)C(=O)N[C@H](C(=O)N[C@@H](CO)C(=O)N1CCC[C@H]1C(=O)N[C@@H](CCC(N)=O)C(=O)NCC(=O)N[C@@H](Cc1ccc(O)cc1)C(N)=O)[C@@H](C)CC)C(C)C)[C@@H](C)O [Example 17, ((2S,5S,11S,14S,19S)-19-(2-(2-aminoacetamido)acetamido)-5-benzyl-2-(3-guanidinopropyl)-11-((R)-1-hydroxyethyl)-3,6,9,12,20-pentaoxo-1,4,7,10,13-pentaazacycloicosane-14-carbonyl)-L threonyl-ADM(22-52)] |
| > 1000 nM | 156 nM | CCCCCCCCCCCCCCCC(=O)NCCCC[C@H](N)C(=O)NCC(=O)N[C@H]1CCCCNC(=O)CC[C@@H](C(=O)N[C@H](C(=O)N[C@H](C(=O)N[C@@H](CCC(N)=O)C(=O)N[C@@H](CCCCN)C(=O)N[C@@H](CC(C)C)C(=O)N[C@@H](C)C(=O)N[C@@H](Cc2c[nH]cn2)C(=O)N[C@@H](CCC(N)=O)C(=O)N[C@H](C(=O)N[C@@H](Cc2ccc(O)cc2)C(=O)N[C@@H](CCC(N)=O)C(=O)N[C@@H](Cc2ccccc2)C(=O)N[C@H](C(=O)N[C@@H](CC(=O)O)C(=O)N[C@@H](CCCCN)C(=O)N[C@@H](CC(=O)O)C(=O)N[C@@H](CCCCN)C(=O)N[C@@H](CC(=O)O)C(=O)N[C@@H](CC(N)=O)C(=O)N[C@H](C(=O)N[C@@H](C)C(=O)N2CCC[C@H]2C(=O)N[C@@H](CCCNC(=N)N)C(=O)N[C@@H](CO)C(=O)N[C@@H](CCCCN)C(=O)N[C@H](C(=O)N[C@@H](CO)C(=O)N2CCC[C@H]2C(=O)N[C@@H](CCC(N)=O)C(=O)NCC(=O)N[C@@H](Cc2ccc(O)cc2)C(N)=O)[C@@H](C)CC)C(C)C)[C@@H](C)O)[C@@H](C)CC)C(C)C)[C@@H](C)O)NC(=O)[C@H]([C@@H](C)O)NC(=O)CNC(=O)[C@H](Cc2ccccc2)NC(=O)[C@H](CCCNC(=N)N)NC1=O [Example 13, ((2S,5S,11S,14S,23S)-23-(2-((S)-2-amino-6-palmitamidohexanamido)acetamido)-5-benzyl-2-(3-guanidinopropyl)-11-((R)-1-hydroxyethyl)-3,6,9,12,17,24-hexaoxo-1,4,7,10,13,18-hexaazacyclotetracosane-14-carbonyl)-L-threonyl-ADM(22-52)] (H-K(Palmitoyl)GKRFGTETVQKLAHQIYQFTDKDKDNVAPRSKISPQGY-NH2; lactam 3-8) |
